From US5789387A (priority 1996, dated 1998)
Entries after “also recorded” stand apart in the source; their conditions may differ.

Key:
Candida albicans [1] = details: in vitro; prolonged exposure; literature; cited from earlier work
Coccidioides immitis = details: in vitro, literature; cited from earlier work
[2] = system: Candida albicans strain B311; assay: quantitative recovery of viable yeast from kidneys in rat model of systemic candidiasis, continuous intravenous infusion; type: in vivo; details: for decrease in viable yeast per gram of tissue / Geometric mean log10 CFU/gm ± S.E.M. (kidney): 96 h; for Geometric mean log10 CFU/gm ± S.E.M. (kidney): inoculum 1×10^6 cfu/rat
Description: (§1) Candida albicans strain B311 (originally obtained from H. Hasenclever, National Institutes of Health, Bethesda, Md.) was employed in the following examples. For growth of yeast inocula, frozen culture aliquots were inoculated into 2% glucose, 1% yeast extract broth and grown at 35° C. with shaking until the culture entered the early log phase of growth. Yeast were collected by centrifugation, washed, and adjusted to the appropriate concentration in sterile phosphate-buffered saline (PBS).
A rat model of systemic candidiasis was used to assess the effect of nikkomycin Z in vivo. […] The inoculum and the subsequent drug treatment was administered via an indwelling catheter placed in the jugular vein that was "tunneled" out the back and placed inside a protective, flexible, metal sheath. For both experiments, therapy was initiated 12-14 h after infection with nikkomycin Z (formulated in a vehicle of 2% dimethylsulfoxide (DMSO)/ 98% dextrose (5%)) administered continuously at 330 mg/kg/day; control animals were treated with vehicle. In the first experiment, animals were treated continuously for 72 h. In the second experiment, animals were treated continuously for 96 h. Drug and vehicle were administered continuously at a volume of one ml per hour. At 7 or 9 h after cessation of treatment, respectively, all animals were euthanized for the removal of kidneys, which were cultured for the quantitative recovery of viable yeast. From each animal, the two kidneys were placed into tared, sterile tubes (one tube per animal, i.e., two kidneys per tube) containing ten ml of sterile PBS. The kidneys were then weighed and the tube contents homogenized. Organ homogenates were diluted in serial fashion and cultured on Sabourauds agar plates containing 50 μg/ml chloramphenicol for the quantitative recovery of viable yeast. The plates were incubated overnight at room temperature and colonies enumerated. Calculations were made to determine the log10 cfu's per gram of tissue for each animal.
Experiments similar to those described above were performed to determine the effectiveness of low doses of Nikkomycin Z in reducing the yeast load in organs of infected animals in the rat model of systemic candidiasis. Experimental details such as yeast used, growth conditions, rats used, and methods of inoculation and drug delivery were as described above in Sections 6.1 and 6.2. Inoculum levels were 1×10^6 cfu/rat. Therapy was initiated 14 h after yeast infection and nikkomycin Z was administered continuously at either 33 or 100 mg/kg/day for a total of 96 h; control animals were treated with vehicle. Test solutions were delivered from syringes using infusion pumps; syringes and solutions were changed daily. After cessation of treatment, all animals were euthanized for the removal of kidneys, which were cultured for the quantitative recovery of viable yeast. Organ removal and culture were done as above. Organ homogenates were cultured on Sabourauds agar and incubated overnight for the enumeration of yeasts as above.

Candida albicans [3] = details: oral, 10-14 day period; cited from earlier work
[4] = plasma levels after subcutaneous sustained release gel (PLURONIC F127) or single intravenous administration, HPLC; type: in vivo; details: rat, single intravenous administration, read-out: mean residence time (MRT), nikkomycin Z total compounds
plants, fish, or mammals = details: under reasonable doses; cited from earlier work
[5] = plasma concentration of nikkomycin Z following continuous intravenous administration, HPLC/SPE; type: in vivo, rat (outbred male albino, strain S/A)
Description: The experimental animals were outbred male albino rats (strain S/A, Simonsen Laboratories, Gilroy, Calif.), 350-400 g average weight, housed one per cage, fed rodent chow and water ad libitum, and identified by ear tags. Rats receiving continuous intravenous administration of nikkomycin Z were cannulated in the left carotid artery and right jugular vein.
Continuous intravenous administration involved a 2 hour loading dose of 20 mg/kg/hour nikkomycin Z and then an infusion rate of 33 mg/kg/day over 24 hours. The formulation contained 1 mg/ml nikkomycin Z in sterile 5% dextrose. Blood samples of 1 ml were withdrawn at 0, 0.25, 0.5, 1, 2, 4, 6 and 12 h.
Nikkomycin Z was extracted from the plasma samples using solid phase extraction (SPE) columns. The SPE matrix was phenylboronate (PBA) which covalently binds nikkomycin Z at high pH. After washing with 20 mM sodium carbonate/bicarbonate alkaline buffer, nikkomycin Z was eluted from the extraction column with a 20 mM glycine solution at pH 1.2. Following a drying and reconstitution step, nikkomycin Z plasma concentration was determined using reverse phase HPLC. The plasma concentrations of nikkomycin Z derived from the HPLC analysis were plotted against time.

Candida albicans [6] = details: cited from earlier work
Candida = details: subcutaneous injections beginning one hour after inoculation; cited from earlier work
C. albicans = details: subcutaneous, high concentrations; cited from earlier work
Candida albicans B311 = assay: prevention of mortality in rats infected with lethal doses of Candida albicans, continuous intravenous infusion; type: in vivo, rat infected with Candida albicans B311
Description: as §1
Using methods similar to those described above, rats were infected intravenously with a higher inoculum level; i.e., 3.2×10^6 cfu/rat, to induce mortalities. Fourteen hours after infection, treatment by continuous infusion was initiated with nikkomycin Z administered continuously at 330 mg/kg/day; control animals were treated with vehicle. Treatment was continued for 96 h, then animals were held for a total of 28 days for observation of mortalities.
Experiments similar to those described above in this Section were performed to determine the effect of low doses of nikkomycin Z in preventing mortality in animals infected with Candida albicans. Using methods similar to those described above, rats were infected intravenously with 1.05×10^7 cfu/rat of C. albicans B311, a dose that would normally rapidly induce mortalities. The inoculum and the subsequent drug treatment was administered via an indwelling catheter placed in the jugular vein. For the experiment, therapy was initiated 14 h after infection with yeast and nikkomycin Z was administered continuously at 33 or 100 mg/kg/day; control animals were treated with vehicle. All animals were treated continuously for 96 h, with test solutions delivered from syringes using infusion pumps. Syringes and solutions were changed daily. Animals were held for a total of 30 days for observation of mortalities.

chitin synthesis = details: subcutaneous, high concentrations; cited from earlier work
chitin synthase = details: in words; cited from earlier work
[7] = bolus intravenous once daily, up to 20 days

## NC(=O)OC[C@H](O)[C@@H](O)[C@H](N)C(=O)N[C@H](C(=O)O)[C@H]1O[C@@H](n2cc(C(=O)O)c(=O)[nH]c2=O)[C@H](O)[C@@H]1O [polyoxin D]
Candida albicans [1]
  effect on Candida cells (in words): exhibited a phenomenon called "chaining". Although deformed, these cells were able to survive several replications, though ultimately they became sensitive to osmotic pressures and would lyse
Coccidioides immitis
  concentration at which C. immitis is rapidly susceptible: 60 to 100 µM

## C[C@@H]([C@H](N)C(=O)N[C@H](C(=O)O)[C@H]1O[C@@H](n2ccc(=O)[nH]c2=O)[C@H](O)[C@@H]1O)[C@H](O)c1ccc(O)cn1 [nikkomycin Z]
[2]; 33 mg/kg/day continuous infusion, 96 h (4 days)
  reduction of yeast load in organs (in words): sufficient to dramatically reduce the yeast load in organs of infected animals; also recorded: significantly reduce the yeast organ load
[2]; 33 mg/kg/day
  decrease in viable yeast per gram of tissue: approximately 1 log10 units
  Geometric mean log10 CFU/gm ± S.E.M. (kidney): 4.23 ± 0.15 log10 CFU/gm
[2]; 100 mg/kg/day
  decrease in viable yeast per gram of tissue: ~2 log10 units
  Geometric mean log10 CFU/gm ± S.E.M. (kidney): 3.48 ± 0.15 log10 CFU/gm
[2]; Exp. 1, 330 mg/kg/day continuous infusion over 72 h, inoculum 6.2×10^5 cfu/rat
  Geometric mean log10 CFU/gm ± S.E.M. (kidney), Exp. 1: 3.09 ± .16 log10 CFU/gm
[2]; Exp. 2, 330 mg/kg/day continuous infusion over 96 h, inoculum […]10^6 cfu/rat
  Geometric mean log10 CFU/gm ± S.E.M. (kidney), Exp. 2: 3.73 ± .05 log10 CFU/gm
Candida albicans [3]
  survival: animals ultimately succumbed to infection
[4]
  MRT: 12 min
plants, fish, or mammals
  toxicity: no toxicity against plants, fish, or mammals under reasonable doses
[5]; infusion 33 mg/kg/day intravenous after loading dose, 33 mg/kg/day
  steady state plasma concentration: about 170 ng/ml
[5]; rat, plasma, 2 hour loading dose of 20 mg/kg/h, then 33 mg/kg/day intravenous
  Tmax: 60 min
[5]; rat, plasma, 2 hour loading dose of 20 mg/kg/h, then 33 mg/kg/day intravenous, read-out: maximum plasma concentration
  Cmax: ~6600 ng/mL
Candida albicans [6]; [7]
  efficacy as characterized by others: modest efficacy; also recorded: limited efficacy
  mortality of infected mice: a delay in the onset of mortalities in infected mice; also recorded: essentially all mice died shortly after cessation of therapy
Candida albicans [6]; summary of earlier studies with reasonable delay between challenge and administration (oral, iv bolus, sc)
  promotion of survival and reduction of fungal burden in kidneys (prior studies): at best in a fungistatic fashion with only marginal activity in promoting survival and only limited ability to reduce the fungal burden in the kidneys
Candida
  protection against experimental candidiasis: some protection
Coccidioides immitis
  concentration at which C. immitis is rapidly susceptible: 60 to 100 µM
C. albicans
  numbers of yeasts in kidneys / efficacy: treatment did not result in any reduction in numbers of yeasts
Candida albicans B311; 33 mg/kg/day continuous infusion 96 h, inoculum 1.05×10^7 cfu/rat, 30 days observation
  survival: all animals receiving nikkomycin Z at either 33 or 100 mg/kg/day by continuous infusion survived the entire observation period; also recorded: complete protection of rats against a lethal challenge with Candida albicans
Candida albicans B311; 100 mg/kg/day continuous infusion 96 h, inoculum 1.05×10^7 cfu/rat, 30 days observation
  survival: all animals receiving nikkomycin Z at either 33 or 100 mg/kg/day by continuous infusion survived the entire observation period
Candida albicans B311; 330 mg/kg/day continuous infusion 96 h, inoculum 3.2×10^6 cfu/rat, 28 days observation
  survival: all animals receiving nikkomycin Z by continuous infusion survived the entire observation period
Chitin synthesis
  chitin synthesis in vivo: depress chitin synthesis in vivo
Chitin synthase
  inhibition of chitin synthase: potent inhibitor
